Key:
[1] = tested on: A549-ACE2; experiment: phospholipidosis EC50; higher = less potent phospholipidosis inducer
[2] = tested on: U2OS; experiment: cell viability relative to DMSO; higher = less toxic; settings: 72 h
[3] = tested on: HepG2; experiment: as above; settings: 72 h
[4] = tested on: Caco-2; experiment: as above; settings: 72 h
[5] = tested on: Calu-3; experiment: as above; settings: 72 h
[6] = tested on: Vero E6; experiment: as above; settings: 72 h
[7] = tested on: A549-ACE2; experiment: drug-induced phospholipidosis relative to tamoxifen; higher = more phospholipidosis
[8] = tested on: A549-ACE2 infected with SARS-CoV-2; experiment: cell count relative to DMSO; higher = less toxic; settings: 24 h
[9] = tested on: U2OS; experiment: relative viability EC50 (midpoint between 100% and the lowest measured viability); higher = less toxic; settings: 72 h
[10] = tested on: HepG2; experiment: as above; settings: 72 h
[11] = tested on: Caco-2; experiment: as above; settings: 72 h
[12] = tested on: Calu-3; experiment: as above; settings: 72 h
[13] = tested on: Vero E6; experiment: as above; settings: 72 h
[14] = tested on: U2OS; experiment: drug sensitivity score (DSS) for viability; higher = more toxic; extreme values may be limits of the assay; settings: 72 h
[15] = tested on: HepG2; experiment: as above; settings: 72 h
[16] = tested on: Caco-2; experiment: as above; settings: 72 h
[17] = tested on: Calu-3; experiment: as above; settings: 72 h
[18] = tested on: Vero E6; experiment: as above; settings: 72 h
[19] = tested on: A549-ACE2 infected with SARS-CoV-2; experiment: morphology score (similarity to uninfected cells); higher = more like uninfected cells; settings: 24 h
[20] = tested on: A549-ACE2 infected with SARS-CoV-2; experiment: SARS-CoV-2 infection rate relative to DMSO; higher = more infection; settings: 24 h

O=c1[nH]c2ccccc2n1C1CCN(CCCC(c2ccc(F)cc2)c2ccc(F)cc2)CC1 [pimozide]
Settings	SARS-CoV-2 infection rate [%]	cell count [%]	cell viability [%]	morphology score	phospholipidosis EC50 [µM]
[1], 24 h	–	–	–	–	4.66
[1], 48 h	–	–	–	–	6.29
[1], 72 h	–	–	–	–	6.67
[2], 1 nM	–	–	99.4	–	–
[2], 10 nM	–	–	102	–	–
[2], 100 nM	–	–	99.5	–	–
[2], 1000 nM	–	–	104	–	–
[2], 10000 nM	–	–	94.6	–	–
[3], 1 nM	–	–	119	–	–
[3], 10 nM	–	–	114	–	–
[3], 100 nM	–	–	108	–	–
[3], 1000 nM	–	–	85.2	–	–
[3], 10000 nM	–	–	104	–	–
[4], 1 nM	–	–	92.2	–	–
[4], 10 nM	–	–	99.1	–	–
[4], 100 nM	–	–	98	–	–
[4], 1000 nM	–	–	94.6	–	–
[4], 10000 nM	–	–	95.7	–	–
[5], 1 nM	–	–	100	–	–
[5], 10 nM	–	–	95.5	–	–
[5], 100 nM	–	–	95.2	–	–
[5], 1000 nM	–	–	100	–	–
[5], 10000 nM	–	–	93.9	–	–
[6], 1 nM	–	–	106	–	–
[6], 10 nM	–	–	88.7	–	–
[6], 100 nM	–	–	104	–	–
[6], 1000 nM	–	–	94.2	–	–
[6], 10000 nM	–	–	104	–	–
[8], 0.3 µM	–	92	–	–	–
[8], 3 µM	–	108	–	–	–
[8], 10 µM	–	113	–	–	–
[8], 30 µM	–	86	–	–	–
[19], 0.3 µM	–	–	–	-0.1	–
[19], 3 µM	–	–	–	0.46	–
[19], 10 µM	–	–	–	0.79	–
[19], 30 µM	–	–	–	0.31	–
[20], 0.3 µM	99	–	–	–	–
[20], 3 µM	83	–	–	–	–
[20], 10 µM	20	–	–	–	–
[20], 30 µM	33	–	–	–	–

drug-induced phospholipidosis [%], [7]
Settings	0.3 µM	0.833333 µM	3.33333 µM	6.66667 µM	10 µM	30 µM
24 h	4.09	5.84	24.5	59.8	64.4	78
48 h	4.99	5.4	17.8	56.9	81	99.5
72 h	6.59	6.94	22.7	60.3	85.3	111

Settings	drug sensitivity score	relative viability EC50 [µM]
[9]	–	> 10
[10]	–	> 10
[11]	–	> 10
[12]	–	> 10
[13]	–	> 10
[14]	0	–
[15]	0	–
[16]	0	–
[17]	0	–
[18]	0	–

O=S(=O)(NCC1CC1)c1ccc(Nc2nccc(N3CCCc4cc(O)ccc43)n2)cc1 [pyrintegrin]
Settings	SARS-CoV-2 infection rate [%]	cell count [%]	cell viability [%]	morphology score	phospholipidosis EC50 [µM]
[1], 24 h	–	–	–	–	1.91
[2], 1 nM	–	–	99	–	–
[2], 10 nM	–	–	97	–	–
[2], 100 nM	–	–	97.8	–	–
[2], 1000 nM	–	–	96	–	–
[2], 10000 nM	–	–	62.4	–	–
[3], 1 nM	–	–	102	–	–
[3], 10 nM	–	–	103	–	–
[3], 100 nM	–	–	107	–	–
[3], 1000 nM	–	–	66.6	–	–
[3], 10000 nM	–	–	15.5	–	–
[4], 1 nM	–	–	98.1	–	–
[4], 10 nM	–	–	102	–	–
[4], 100 nM	–	–	100	–	–
[4], 1000 nM	–	–	110	–	–
[4], 10000 nM	–	–	86.2	–	–
[5], 1 nM	–	–	95.5	–	–
[5], 10 nM	–	–	89.7	–	–
[5], 100 nM	–	–	92.8	–	–
[5], 1000 nM	–	–	102	–	–
[5], 10000 nM	–	–	85	–	–
[6], 1 nM	–	–	90.5	–	–
[6], 10 nM	–	–	93.9	–	–
[6], 100 nM	–	–	98.9	–	–
[6], 1000 nM	–	–	98.3	–	–
[6], 10000 nM	–	–	75.3	–	–
[8], 0.1 µM	–	104	–	–	–
[8], 0.3 µM	–	106	–	–	–
[8], 1 µM	–	107	–	–	–
[8], 3 µM	–	86	–	–	–
[19], 0.1 µM	–	–	–	0.18	–
[19], 0.3 µM	–	–	–	0.28	–
[19], 1 µM	–	–	–	0.52	–
[19], 3 µM	–	–	–	0.4	–
[20], 0.1 µM	104	–	–	–	–
[20], 0.3 µM	103	–	–	–	–
[20], 1 µM	81	–	–	–	–
[20], 3 µM	60	–	–	–	–

drug-induced phospholipidosis [%], [7]
Settings	0.3 µM	0.833333 µM	3.33333 µM	6.66667 µM	10 µM
24 h	5.15	22.5	132	178	150
48 h	3.16	12.3	135	–	–
72 h	2.43	7.41	–	–	–

Settings	drug sensitivity score	relative viability EC50 [µM]
[10]	–	1.19
[11]	–	> 10
[12]	–	> 10
[13]	–	> 10
[14]	2.5	–
[15]	9.2	–
[16]	0	–
[17]	0.1	–
[18]	1.2	–

CCCCCCCCNC(C)C(O)c1ccc(SC(C)C)cc1 (configuration not stated) [suloctidil]
Settings	SARS-CoV-2 infection rate [%]	cell count [%]	cell viability [%]	morphology score	phospholipidosis EC50 [µM]
[1], 24 h	–	–	–	–	7.11
[1], 48 h	–	–	–	–	9.12
[1], 72 h	–	–	–	–	12.5
[2], 1 nM	–	–	98.2	–	–
[2], 10 nM	–	–	95	–	–
[2], 100 nM	–	–	99.7	–	–
[2], 1000 nM	–	–	95.5	–	–
[2], 10000 nM	–	–	64.5	–	–
[3], 1 nM	–	–	98.7	–	–
[3], 10 nM	–	–	109	–	–
[3], 100 nM	–	–	98.5	–	–
[3], 1000 nM	–	–	119	–	–
[3], 10000 nM	–	–	102	–	–
[4], 1 nM	–	–	105	–	–
[4], 10 nM	–	–	97.3	–	–
[4], 100 nM	–	–	99.4	–	–
[4], 1000 nM	–	–	101	–	–
[4], 10000 nM	–	–	92.6	–	–
[5], 1 nM	–	–	99.4	–	–
[5], 10 nM	–	–	97.1	–	–
[5], 100 nM	–	–	107	–	–
[5], 1000 nM	–	–	57	–	–
[5], 10000 nM	–	–	-0.5	–	–
[6], 1 nM	–	–	93.8	–	–
[6], 10 nM	–	–	98.3	–	–
[6], 100 nM	–	–	93	–	–
[6], 1000 nM	–	–	98.3	–	–
[6], 10000 nM	–	–	97.4	–	–
[8], 0.3 µM	–	102	–	–	–
[8], 3 µM	–	112	–	–	–
[8], 10 µM	–	122	–	–	–
[8], 30 µM	–	65	–	–	–
[19], 0.3 µM	–	–	–	0.02	–
[19], 3 µM	–	–	–	0.31	–
[19], 10 µM	–	–	–	0.74	–
[19], 30 µM	–	–	–	0.13	–
[20], 0.3 µM	99	–	–	–	–
[20], 3 µM	83	–	–	–	–
[20], 10 µM	26	–	–	–	–
[20], 30 µM	25	–	–	–	–

drug-induced phospholipidosis [%], [7]
Settings	0.3 µM	0.833333 µM	3.33333 µM	6.66667 µM	10 µM	30 µM
24 h	2.27	1.81	10.5	42.2	60	84.3
48 h	4.05	0.83	9.1	35.5	57	95.6
72 h	3.93	-1.43	8.76	31.3	53.9	114

Settings	drug sensitivity score	relative viability EC50 [µM]
[10]	–	> 10
[11]	–	> 10
[12]	–	1.12
[13]	–	> 10
[14]	2.4	–
[15]	0	–
[16]	0	–
[17]	11.1	–
[18]	0	–

From the supplement of paper PMC13380429
